Assay results reported in patent US7879835B2 (Korea Research Institute of Chemical Technology, priority 2004, dated 2011).

Experiments:
[1] = tested on: osteoclast (TRAP-positive multinuclear cell) formation; experiment: Inhibitory effect on osteoclast formation (TRAP staining); type: cell-based, mice; details: 8 days culture with M-CSF and RANKL, compared to control
Protocol: The inhibitory activities of the alpha-arylmethoxyacrylate derivatives prepared in the above Examples on the proliferation of osteoclasts were examined as follows.
First, a bone marrow sample containing osteoclast pregenitor cells was isolated as follows. After sacrificing 7 to 9 week-old female mice by cervical dislocation, femur and tibia were excised aseptically while removing soft tissues attached thereto, After cutting both ends of the long bones, 1 ml of an enzyme solution containing 0.1% collagenase (Gibco), 0.05% trypsin and 0.5 mM EDTA (Gibco) was injected into the bone marrow cavity at one end using a syringe with a 26-gauge needle, and the bone marrow was then collected. After stirring the recovered bone marrow for 30 min, the precipitated bone marrow cells were collected, and cultured in α-minimum essential medium (α-MEM) supplemented with 10% FBS for 24 hrs. Then, non-adherent cells, which are osteoclast pregenitors, were aliquoted onto a culture plate at a density of 2×10^5 cells per well, and cultured for 8 days in α-MEM supplemented with 20 ng/ml of macrophage-colony stimulating factor (M-CSF, Peprotech, USA), 30 ng/ml RANKL (Peprotech, USA), and 0.3, 1.0 or 3 μM of the compounds of the Examples. Control cells were cultured at the same condition except not adding the compounds of the Examples.
After cell culture for 8 days, the adherent cells were washed with PBS and fixed with citrate-acetate-formaldehyde for 5 min. The fixed cells were incubated at 37° C. for 1 hr in acetate buffer (pH 5.0) containing naphthol AS-BI phosphate, fast Garnet GBC solution and 7 mM tartrate buffer (pH 5.0) to conduct TRAP (tartrate-resistant acid phosphatase) staining.

[2] = tested on: osteoclast pregenitor cells; experiment: Cytotoxicity against osteoclast pregenitor (MTT); type: cell-based, mice; details: 48 hrs, absorbance at 550 nm
Protocol: (§1) In order examine the toxicities of the compounds of the Examples against osteoclast pregenitors, pregenitor cells were aliquotted onto a 96-well microplate at a density of 2×10^5 cells per well, treated with 2, 4 and 8 μM of the test compounds, respectively, and cultured for 48 hrs in α-MEM supplemented with 20 ng/ml of M-CSF (Peprotech, USA) using 37° C. incubator (5% CO2). At 3 hrs before the culture was finished, 50 μl of MTT (3-(4,5-dimethylthiazol-2-yl)-2,5-diphenyltetrazolium bromide) solution (50 μg/ml) was added to each well. Upon completion of the cell culture, the supernatant was removed, and the precipitated dye was reacted with 100 μl of isopropanol/0.04 N HCl at room temperature for 30 min to dissolve it. The absorbances of the wells were measured at 550 nm, and the relative absorbance of each well relative to that of the control (set as 100) is shown in Table 6.

[3] = tested on: osteoclasts; experiment: Inhibitory effect on resorption activity of osteoclast (resorption pit area on calcium phosphate-coated plate); type: cell-based, mice; details: compared to control
Protocol: After finishing culture, the plate was washed with distilled water, and 50 μl/well of 5% sodium hypochlorite was added to the plate. The plate was let alone for 5 min, washed again with distilled water to remove the adherent cells, and dried at room temperature. Then, the area of formed resorption pits was calculated by means of Image Pro Plus software (Media Cybernetics Ver. 3.0).

[4] = tested on: MG-63 cells; experiment: Cytotoxicity test against osteoblast (MTT); type: cell-based, human
Protocol: as §1
In order to examine the toxicity of the compounds of the Examples against osteoblasts, human osteosarcoma-derived cell line, MG-63 (ATCC No. CRL-1427) cells were treated with 0.1, 0.3, 1.0 and 3.0 μM of the compounds of the Examples, and cultured in DMEM supplemented with 10% FBS (fetal bovine serum).

Row | SMILES | Osteoclast formation inhibitory effects (%) ([1]; 0.3 μM) | Osteoclast formation inhibitory effects (%) ([1]; 1.0 μM) | Osteoclast formation inhibitory effects (%) ([1]; 3.0 μM) | relative absorbance relative to that of the control (set as 100), MTT ([2]; 2 uM) | relative absorbance relative to that of the control (set as 100), MTT ([2]; 4 uM) | relative absorbance relative to that of the control (set as 100), MTT ([2]; 8 uM) | Reduction (%) of the resorption pit area of osteoclasts ([3]; 0.3 uM) | Reduction (%) of the resorption pit area of osteoclasts ([3]; 1 uM) | Reduction (%) of the resorption pit area of osteoclasts ([3]; 3 uM) | relative absorbance relative to that of the control (set as 100), MTT ([4]; 0.33 uM) | relative absorbance relative to that of the control (set as 100), MTT ([4]; 1 uM) | relative absorbance relative to that of the control (set as 100), MTT ([4]; 3 uM) | relative absorbance relative to that of the control (set as 100), MTT ([4]; 0.11 uM)
1 | CCCCCCOc1cccc(OCc2ccccc2/C(=C\OC)C(=O)OC)c1 [compound 220] | 100% | 100% | 100% | 89 | 98 | 96 | 42% | 70% | 73% |  |  |  | 
2 | CO/C=C(/C(=O)OC)c1ccccc1COc1cccc(C(F)CC(C)=O)c1 (centres unmarked) [compound 206] | 35% | 100% | 100% | 102 | 102 | 108 | 97% | 100% | 100% |  |  |  | 
3 | CO/C=C(/C(=O)OC)c1ccccc1COc1cccc(C(F)CC(C)(F)F)c1 (centres unmarked) [compound 205] | 90% | 100% | 100% | 101 | 109 | 104 |  | 100% | 100% |  |  |  | 
4 | CCCCCCOc1ccc(OCc2cc(Cl)ccc2/C(=C\OC)C(=O)OC)cc1 [compound 271] | 94% | 100% | 100% |  |  |  | 30% | 94% | 42% | 114 | 79 | 64 | 
5 | C=CCCCCCCOc1cccc(OCc2ccccc2/C(=C\OC)C(=O)OC)c1 [compound 197] | 100% | 100% | 100% |  |  |  | 100% | 100% | 100% | 101 | 111 | 103 | 112
6 | CO/C=C(/C(=O)OC)c1ccccc1COc1ccc(OCC(C)C)cc1 [compound 174] | 35% | 100% | 100% |  |  |  | 100% | 100% | 100% |  |  |  | 
7 | CCOc1ccc(OCc2ccccc2/C(=C\OC)C(=O)OC)cc1 [compound 183] | 96% | 100% | 100% |  |  |  | 100% | 100% | 100% |  |  |  | 
8 | CCCCCCCOc1cccc(OCc2ccccc2/C(=C\OC)C(=O)OC)c1 [compound 201] | 12% | 70% | 100% |  |  |  | 100% | 100% | 100% |  |  |  | 
9 | CO/C=C(/C(=O)OC)c1ccc(Cl)cc1COc1cccc(CO)c1 [compound 262] | 93% | 100% | 100% |  |  |  | 93% | 100% | 100% |  |  |  | 
10 | CO/C=C(/C(=O)OC)c1ccccc1COc1ccc(OC2CCCC2)cc1 [compound 172] | 90% | 100% | 100% |  |  |  | 90% | 100% | 100% |  |  |  | 
11 | CO/C=C(/C(=O)OC)c1ccccc1CON=C(C)c1cccc(OCCN2CCOCC2)c1 [compound 20] | 12% | 34% | 100% |  |  |  |  | 26% | 47% | 106 | 106 | 105 | 
12 | CO/C=C(/C(=O)OC)c1ccc(Cl)cc1COc1ccc(OCC=C(C)C)cc1 [compound 269] | 97% | 100% | 100% |  |  |  | 100% | 100% | 100% | 81 | 94 | 88 | 
13 | CCC(C)Oc1ccc(OCc2cc(F)ccc2/C(=C\OC)C(=O)OC)cc1 (centres unmarked) [compound 319] | 82% | 100% | 100% |  |  |  | 0% | 100% | 100% |  |  |  | 
